Assay results from paper PMC6803038 (Angewandte Chemie (International ed. in English), 2019).
Where no end group is shown, it is not given here. [ ]: non-standard residue; d: D form. Nle = CCCC[C@H](N)C(=O)O

T1: HDAC8 (UniProt Q9BY41 1-377)
T1 sequence (looked up): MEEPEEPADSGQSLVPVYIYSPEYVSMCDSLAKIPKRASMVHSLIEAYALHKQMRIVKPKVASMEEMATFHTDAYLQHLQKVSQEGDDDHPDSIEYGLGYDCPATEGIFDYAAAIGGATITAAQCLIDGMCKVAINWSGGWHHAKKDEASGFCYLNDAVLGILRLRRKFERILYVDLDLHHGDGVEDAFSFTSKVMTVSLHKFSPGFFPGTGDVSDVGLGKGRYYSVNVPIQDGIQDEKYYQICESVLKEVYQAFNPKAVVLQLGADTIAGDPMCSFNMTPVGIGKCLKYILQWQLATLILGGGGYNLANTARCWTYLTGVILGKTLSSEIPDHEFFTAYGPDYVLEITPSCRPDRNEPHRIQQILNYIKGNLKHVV

B1: 5-FAM-conjugated LinH8a (peptide)
chain: CQSLWMNK
modifications: also: 5-FAM conjugated, site not given here
B2: 5-FAM-conjugated LinH8a’ (peptide)
chain: CQSLWMN[Nle]
modifications: also: 5-FAM conjugated, site not given here

Key:
[1] = physiological conditions; cited from earlier work
TEV protease = TEV protease (Tobacco etch virus, UniProt P04517); assay: Fluorescence polarization binding of 5-FAM-conjugated peptides to TEV protease; settings: cyclic vs linear counterpart
HDAC8 = target: T1, HDAC8; assay: fluorescence polarisation

TEV protease, sequence (P04517 2038-2279): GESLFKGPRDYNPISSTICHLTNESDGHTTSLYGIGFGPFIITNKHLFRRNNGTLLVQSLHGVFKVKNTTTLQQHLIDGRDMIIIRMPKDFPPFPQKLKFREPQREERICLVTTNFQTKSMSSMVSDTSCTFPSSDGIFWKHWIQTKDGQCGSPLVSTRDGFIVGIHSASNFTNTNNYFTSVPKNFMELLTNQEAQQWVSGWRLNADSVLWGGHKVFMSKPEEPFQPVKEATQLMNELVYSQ

Molecule | better binding of cyclic peptide than its linear counterpart (TEV protease) | Kd (HDAC8) | also measured
C=CC(=O)NCCCC[C@H](N)C(=O)O [AcrK, N^ε-acryloyl-lysine] | – | – | second-order rate constant of reaction with a thiol [1]: 0.004 M⁻¹ s⁻¹
CC[C@H](C)[C@@H]1NC(=O)[C@H](CC(C)C)NC(=O)[C@H](Cc2ccc(O)cc2)NC(=O)[C@H](CC(=O)O)NC(=O)[C@H](CCCNC(=N)N)NC(=O)[C@H](Cc2c[nH]c3ccccc23)NC(=O)[C@@H](N)CSCCC(=O)NCCCC[C@@H](C(=O)O)NC1=O [CycTev1, CWRDYLIX] | > 6 fold | – | –
N=C(N)NCCC[C@@H]1NC(=O)[C@H](Cc2c[nH]cn2)NC(=O)[C@H](CO)NC(=O)[C@H](Cc2ccccc2)NC(=O)[C@H](Cc2c[nH]c3ccccc23)NC(=O)[C@H](CCC(N)=O)NC(=O)[C@@H](N)CSCCC(=O)NCCCC[C@@H](C(=O)O)NC1=O [CycTev2, CQWFSHRX] | > 6 fold | – | –
B1 | – | > 50 µM | –
B2 | – | 31 ± 7 µM | –
